Source: paper PMC7367283, “A PIP2 substitute mediates voltage sensor-pore coupling in KCNQ activation” (Communications Biology, 2020)

Molecular target: CaV1.2 (Homo sapiens, UniProt Q13936)
Assay: Two-electrode voltage clamp of CaV1.2 in Xenopus oocytes
Format: cell-based
Settings: 10 µM CP1
Source text: Since CP1 has a similar effect to PIP2 in mediating VSD-pore coupling in KCNQ channels, we tested if CP1 has effects on other ion channels that are also sensitive to PIP2 or are voltage activated and share general structural features of the VSD and the pore with KCNQ. […] On the other hand, NaV1.5 and KV4.2 are voltage-gated ion channels.
Fig. 6 Effects of CP1 on other ion channels expressed in Xenopus oocytes. a Currents of Kir1.1, CaV1.2, NaV1.5, hERG, and KV4.2 before and after application of 10 µM CP1, respectively. The voltages for holding, test, and returning pulses were Kir1.1, 0 mV, −100 to +60 mV, 0; CaV1.2, −100 mV, −100 to +60, −100 mV; NaV1.5, −100, −120 to +40 mV, −120 mV; hERG, −80 mV, −90 to +60 mV, −60 mV; KV4.2, −80 mV, −100 mV to +80 mV, −40 mV; HCN4, −30 mV, −30 to −140 mV, −120 mV. b Current–voltage relations of Kir1.1 channel in the absence or presence of 10 µM CP1 (n = 7). c–g G–V relations of indicated channels with and without 10 µM CP1. The ΔV1/2 of G–V relations (mV) are CaV1.2, 3.38 ± 0.71 mV (c); NaV1.5, −2.26 ± 0.95 mV (d); hERG, 6.85 ± 1.81 mV (e); KV 4.2, −2.26 ± 2.88 mV (f); HCN4, 17.13 ± 1.59 mV (g).
Complementary DNA (cDNA) encoding human KCNQ1 (UniProtKB/Swiss‐Prot under accession no. P51787), KCNQ2 (O43526), KCNQ3 (O43525), KCNE1 (P15382), Kir1.1 (P48048), hERG (Q12809), KV4.2 (Q63881), NaV1.5 (Q14524), NaV β1 (Q07699), CaV1.2 (Q13936), CaV β1a (Q02641), CaV α2/δ1 (P54289), and HCN4 (Q9Y3Q4) were subcloned into oocyte expression vectors, respectively. Site-directed mutations of the KCNQ1 channel were all produced by overlap extension polymerase chain reaction (PCR) with high-fidelity Pfu polymerase (Stratagene, CA). The presence of the desired mutation was verified by sequencing the PCR-amplified regions. All the primer sequences used in this study are available in Supplementary Table 1. The complementary RNA (cRNA) of all these channels and mutations was transcribed in vitro with the T3, T7, or SP6 polymerase mMessage mMachine kit (Invitrogen, Thermo Fisher Scientific, MO).
The use of Xenopus laevis to obtain oocytes was approved by the Washington University Animal Studies Committee (protocol #20190030). Oocytes were manually dispersed and digested with collagenase (0.5 mg/ml, Sigma-Aldrich, Saint Louis, MO) to remove the follicle cell layer. Stage V or VI oocytes were selected and injected with cRNAs (9.2 ng) of channel or mutations. Especially, to characterize IKs, a mix of cRNAs at a molar ratio 4:1 (KCNQ1:KCNE1) was injected. For KCNQ2/KCNQ3, the molar ratio was 1:1 (KCNQ2:KCNQ3). For sodium channels, a 3:1 molar ratio (β1:NaV1.5) and for calcium channels a weight ratio 1:1:1 (β1:α2/δ1:CaV1.2) was injected, respectively. Injected oocytes were incubated in ND96 solution containing (in mM) 96 NaCl, 2 KCl, 1.8 CaCl2, 1 MgCl2, and 5 HEPES, pH 7.6, supplemented with 2.5 mM Na pyruvate and 1% penicillin–streptomycin, at 18 °C for 3–7 days before recording.
The whole-oocyte ionic currents were recorded with a GeneClamp 500B amplifier (Axon Instruments, CA) or iTEV90 amplifier (HEKA, Germany) and then sampled at 1 kHz and low-pass-filtered at 2 kHz. The Patchmaster software (HEKA, Germany) was used to acquire data. The Kir1.1 current was recorded with a high K^+ bath solution containing (in mM) 96 KCl, 4 NaCl, 1 CaCl2, 2 MgCl2, and 10 HEPES, pH 7.3–7.4. The HCN4 current was recorded in ND66 solution containing (in mM) 66 NaCl, 32 KCl, 1.8 CaCl2, 1 MgCl2, and 5 HEPES, pH 7.6. All the other potassium channels were recorded in ND96 solution. The currents of CaV1.2 channel were recorded in 40 mM Ba^2+ bath solution containing (in mM) 40 Ba(OH)2, 50 TEA-OH, 2 KOH, and 5 HEPES, adjusted to pH 7.4 with methanesulfonic acid. CP1 (DISODIUM 5-BROMO-2-[9-CHLORO-3-(SULFONATOOXY) NAPHTHO [1,2-B] THIEN-2-YL]-1H-INDOL-3-YL SULFATE, Sigma-Aldrich, MO) and Chromanol 293B (Sigma-Aldrich, MO) were dissolved in bath solutions. All the chemicals were purchased from Sigma-Aldrich. […]

Chain of CaV1.2 (Q13936 whole entry): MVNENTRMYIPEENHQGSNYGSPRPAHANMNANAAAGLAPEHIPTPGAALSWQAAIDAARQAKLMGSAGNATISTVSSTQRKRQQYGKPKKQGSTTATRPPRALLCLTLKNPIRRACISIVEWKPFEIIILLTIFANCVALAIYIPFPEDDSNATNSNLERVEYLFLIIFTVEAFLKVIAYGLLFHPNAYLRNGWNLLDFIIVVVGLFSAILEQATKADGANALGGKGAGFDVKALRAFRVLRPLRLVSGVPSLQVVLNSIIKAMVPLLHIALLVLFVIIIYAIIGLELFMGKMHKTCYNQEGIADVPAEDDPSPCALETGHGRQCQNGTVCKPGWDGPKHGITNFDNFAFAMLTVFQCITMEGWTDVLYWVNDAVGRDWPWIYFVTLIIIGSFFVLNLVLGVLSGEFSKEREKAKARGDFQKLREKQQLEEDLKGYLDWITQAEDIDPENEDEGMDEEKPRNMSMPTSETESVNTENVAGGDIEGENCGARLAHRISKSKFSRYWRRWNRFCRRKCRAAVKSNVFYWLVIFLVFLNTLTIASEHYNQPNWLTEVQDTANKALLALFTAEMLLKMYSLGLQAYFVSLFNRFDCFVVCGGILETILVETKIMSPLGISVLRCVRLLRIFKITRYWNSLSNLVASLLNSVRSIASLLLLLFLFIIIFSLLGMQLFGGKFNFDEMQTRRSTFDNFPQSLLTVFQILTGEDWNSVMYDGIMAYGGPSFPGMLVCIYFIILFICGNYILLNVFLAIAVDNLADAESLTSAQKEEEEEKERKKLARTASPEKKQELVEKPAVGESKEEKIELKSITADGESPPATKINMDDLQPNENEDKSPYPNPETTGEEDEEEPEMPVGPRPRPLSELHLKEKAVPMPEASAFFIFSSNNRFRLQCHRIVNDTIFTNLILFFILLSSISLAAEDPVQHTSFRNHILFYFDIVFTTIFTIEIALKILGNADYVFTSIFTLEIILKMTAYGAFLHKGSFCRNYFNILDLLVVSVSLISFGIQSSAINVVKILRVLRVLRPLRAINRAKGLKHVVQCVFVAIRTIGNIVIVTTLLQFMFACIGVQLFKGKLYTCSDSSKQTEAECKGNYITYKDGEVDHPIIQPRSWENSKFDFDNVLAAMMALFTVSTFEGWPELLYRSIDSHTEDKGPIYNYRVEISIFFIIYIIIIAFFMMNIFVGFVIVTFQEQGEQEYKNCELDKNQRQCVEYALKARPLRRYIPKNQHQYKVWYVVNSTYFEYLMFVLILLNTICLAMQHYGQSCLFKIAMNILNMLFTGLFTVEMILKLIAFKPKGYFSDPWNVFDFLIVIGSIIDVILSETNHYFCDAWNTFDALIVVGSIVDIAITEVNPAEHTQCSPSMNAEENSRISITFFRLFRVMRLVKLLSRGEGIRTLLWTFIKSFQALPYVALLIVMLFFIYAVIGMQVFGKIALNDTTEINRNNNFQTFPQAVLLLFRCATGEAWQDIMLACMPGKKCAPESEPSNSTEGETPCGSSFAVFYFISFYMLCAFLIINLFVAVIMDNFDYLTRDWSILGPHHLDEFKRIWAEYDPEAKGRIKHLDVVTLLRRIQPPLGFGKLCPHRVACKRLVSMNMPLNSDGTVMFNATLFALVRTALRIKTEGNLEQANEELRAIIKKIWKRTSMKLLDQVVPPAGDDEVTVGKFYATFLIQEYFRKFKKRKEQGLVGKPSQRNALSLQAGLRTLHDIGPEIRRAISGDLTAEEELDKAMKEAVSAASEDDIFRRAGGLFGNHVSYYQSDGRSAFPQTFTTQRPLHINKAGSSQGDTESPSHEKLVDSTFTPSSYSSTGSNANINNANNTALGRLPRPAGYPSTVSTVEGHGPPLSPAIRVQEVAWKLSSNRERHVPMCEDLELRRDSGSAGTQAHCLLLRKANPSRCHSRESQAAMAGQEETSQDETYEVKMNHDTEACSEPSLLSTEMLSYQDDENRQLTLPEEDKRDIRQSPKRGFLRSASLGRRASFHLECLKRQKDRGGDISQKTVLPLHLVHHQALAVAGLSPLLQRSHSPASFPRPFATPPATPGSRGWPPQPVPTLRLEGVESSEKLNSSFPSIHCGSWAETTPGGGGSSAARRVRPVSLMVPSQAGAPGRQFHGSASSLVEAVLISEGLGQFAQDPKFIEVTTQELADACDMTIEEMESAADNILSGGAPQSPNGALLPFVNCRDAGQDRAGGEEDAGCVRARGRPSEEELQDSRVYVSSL
Chain of CaV1.2 (Q02641 1-523 isoform Q02641-2 partner): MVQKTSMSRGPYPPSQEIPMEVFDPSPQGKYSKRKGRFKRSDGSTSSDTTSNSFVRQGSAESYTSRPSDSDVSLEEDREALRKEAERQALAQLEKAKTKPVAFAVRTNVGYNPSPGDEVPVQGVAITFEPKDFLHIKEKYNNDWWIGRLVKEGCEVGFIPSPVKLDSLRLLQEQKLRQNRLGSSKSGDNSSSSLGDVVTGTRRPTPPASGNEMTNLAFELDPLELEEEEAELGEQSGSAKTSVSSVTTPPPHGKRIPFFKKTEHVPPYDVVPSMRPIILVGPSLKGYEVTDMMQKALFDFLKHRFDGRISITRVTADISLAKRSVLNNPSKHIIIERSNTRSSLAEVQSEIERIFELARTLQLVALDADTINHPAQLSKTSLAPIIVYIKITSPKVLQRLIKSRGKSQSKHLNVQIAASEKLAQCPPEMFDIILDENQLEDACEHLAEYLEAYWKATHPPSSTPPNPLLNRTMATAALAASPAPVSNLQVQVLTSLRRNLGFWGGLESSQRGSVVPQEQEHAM
Chain of CaV1.2 (P54289 25-956 partner limits assumed): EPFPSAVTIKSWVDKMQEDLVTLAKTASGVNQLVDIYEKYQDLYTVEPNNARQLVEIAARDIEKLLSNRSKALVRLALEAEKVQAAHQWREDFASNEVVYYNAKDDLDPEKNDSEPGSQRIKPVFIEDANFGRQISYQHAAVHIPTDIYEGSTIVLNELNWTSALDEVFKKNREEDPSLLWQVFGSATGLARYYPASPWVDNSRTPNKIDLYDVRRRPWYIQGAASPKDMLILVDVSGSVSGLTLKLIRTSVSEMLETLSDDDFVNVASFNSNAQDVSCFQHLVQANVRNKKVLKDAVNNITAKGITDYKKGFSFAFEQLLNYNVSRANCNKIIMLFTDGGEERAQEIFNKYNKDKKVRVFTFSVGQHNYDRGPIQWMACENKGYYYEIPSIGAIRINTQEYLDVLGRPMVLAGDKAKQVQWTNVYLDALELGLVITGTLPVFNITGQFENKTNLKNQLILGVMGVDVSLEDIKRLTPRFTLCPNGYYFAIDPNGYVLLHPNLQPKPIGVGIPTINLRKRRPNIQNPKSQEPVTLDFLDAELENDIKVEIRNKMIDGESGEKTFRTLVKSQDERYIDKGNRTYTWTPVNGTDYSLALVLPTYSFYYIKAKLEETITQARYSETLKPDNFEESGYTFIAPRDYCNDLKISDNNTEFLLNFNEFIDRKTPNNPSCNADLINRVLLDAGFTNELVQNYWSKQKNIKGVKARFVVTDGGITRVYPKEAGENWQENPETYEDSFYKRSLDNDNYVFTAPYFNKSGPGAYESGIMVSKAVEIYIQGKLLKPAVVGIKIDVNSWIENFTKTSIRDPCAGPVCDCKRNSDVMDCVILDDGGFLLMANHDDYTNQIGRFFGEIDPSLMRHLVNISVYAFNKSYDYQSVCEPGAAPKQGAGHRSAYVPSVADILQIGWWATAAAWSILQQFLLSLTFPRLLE
Chain of CaV1.2 (P54289 957-1103 partner limits assumed): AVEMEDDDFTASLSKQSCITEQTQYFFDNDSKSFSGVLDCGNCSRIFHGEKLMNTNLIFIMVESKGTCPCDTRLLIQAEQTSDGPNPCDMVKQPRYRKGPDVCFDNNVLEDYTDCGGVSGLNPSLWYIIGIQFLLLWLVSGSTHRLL

Q: Which “ΔV1/2 of G–V relations” value does the source give for `O=S(=O)([O-])Oc1c(-c2sc3c(ccc4cccc(Cl)c43)c2OS(=O)(=O)[O-])[nH]c2ccc(Br)cc12.[Na+].[Na+]` [CP1, DISODIUM 5-BROMO-2-[9-CHLORO-3-(SULFONATOOXY) NAPHTHO [1,2-B] THIEN-2-YL]-1H-INDOL-3-YL SULFATE] here?
A: The value was 3.38 ± 0.71 mV.

Q: And the “G/Gmax Mean (Fig. 6c)” value (voltage 0 mV)?
A: Its value is 0.1903.

Q: And the “G/Gmax Mean (Fig. 6c)” value (voltage 10 mV)?
A: The value was 0.4214.

Q: What about the “G/Gmax Mean (Fig. 6c)” value (voltage 20 mV) of the same compound?
A: Its value is 0.7222.

Q: What about the “G/Gmax Mean (Fig. 6c)” value (voltage 30 mV) of the same compound?
A: The value was 0.9242.

Q: What about the “G/Gmax Mean (Fig. 6c)” value (voltage 40 mV) of the same compound?
A: Its value is 1.0000.

Q: What about the “G/Gmax Mean (Fig. 6c)” value (voltage -10 mV) of the same compound?
A: Its value is 0.0690.

Q: What about the “G/Gmax Mean (Fig. 6c)” value (voltage -20 mV) of the same compound?
A: The value was 0.0228.

Q: And the “G/Gmax Mean (Fig. 6c)” value (voltage -30 mV)?
A: Its value is 0.0102.

Q: And the “G/Gmax Mean (Fig. 6c)” value (voltage -40 mV)?
A: Its value is 0.0076.

Q: And the “G/Gmax Mean (Fig. 6c)” value (voltage -50 mV)?
A: Its value is 0.0080.

Q: And the “G/Gmax Mean (Fig. 6c)” value (voltage -60 mV)?
A: The value was 0.0090.

Q: What about the “G/Gmax Mean (Fig. 6c)” value (voltage -70 mV) of the same compound?
A: Its value is 0.0102.

Q: And the “G/Gmax Mean (Fig. 6c)” value (voltage -80 mV)?
A: Its value is 0.0108.

Q: And the “G/Gmax Mean (Fig. 6c)” value (voltage -90 mV)?
A: The value was 0.0176.

Q: What about the “G/Gmax Mean (Fig. 6c)” value (voltage -100 mV) of the same compound?
A: The value was 0.0169.
